Measurements: patent US7625887B2, “Receptor agonists” (Takeda Pharmaceutical Company Limited, priority 2003, dated 2009)

Tests used:
NCI-H716 cells [1] = assay: intracellular cAMP production increasing action in NCI-H716 cells; format: cell-based, human; conditions: bile acid 50 μM, 2 hrs; production amount in TLCA (50 μM) was 100%; Base 11
NCI-H716 cells [2] = assay: GLP-1 secretion from NCI-H716 cell line; format: cell-based, human; conditions: bile acid 25 μM, 2 hrs; secretion amount in Base was 100%
Protocol: NCI-H716 cells secrete Glucagon-like peptide-1 (GLP-1). GLP-1 is a peptide useful for controlling blood glucose level because it acts on the pancreas to cause secretion of insulin and the like. In the same manner as in Experimental Example 9, NCI-H716 (ATCC) was seeded in a 96 well plate and, after incubation for 2 days, used for the following secretion test. As a buffer for secretion test, modified Krebs-Ringer bicarbonate buffer (KRBH, 116 mM NaCl, 4.7 mM KCl, 1.2 mM KH2PO4, 1.2 mM MgSO4, 2.5 mM CaCl2, 25 mM NaHCO3, 24 mM HEPES, pH 7.3) supplemented with glucose 5.5 mM and BSA 0.1% was used. The cells were washed once with the buffer for secretion test, preincubated at 37° C. under 5% CO2, bile acid diluted with the buffer for secretion test was added and the cells were cultured at 37° C. under 5% CO2 for 2 hrs. The cell culture supernatant was collected, cryopreserved and the GLP-1 content in the supernatant was measured using a GLP-1 measurement EIA kit (Linco) The results are shown in Table 9. In the Table, Base means non-addition of a test compound.

With `C[C@H](CCC(=O)NCCS(=O)(=O)O)[C@H]1CC[C@H]2[C@@H]3CC[C@@H]4C[C@H](O)CC[C@]4(C)[C@H]3CC[C@]12C` [TLCA, taurolithocholic acid, reference compound] the “cAMP production increasing activity (%)” value (NCI-H716 cells [1]) was 100% and the “GLP-1 secretion increase (%)” value (NCI-H716 cells [2]) was 124%.
